Read-outs that look alike come from different tables or passages of the source.
System: BS-C-1 cells
Assay type: cell-based
Conditions: vRG0-infected cells
Procedure: EGFP Expression Levels by vRG0 Were not Repressed Even in the Presence of High Concentrations of TCs: To test whether vRG0 was repressible by TCs, BS-C-1 cells were infected with vRG0 in the presence of increasing concentrations of ATC, TET, or DOX. The cytopathic effect observed by brightfield microscopy 2 days post-infection was indistinguishable from the cytopathic effect observed from cells treated with ATC and 10 μg/ml or less of TET or DOX (data not shown).
Since TCs complexed to MgCl2 bind to the TetR repressor with higher affinity than TCs alone (a commonly used strategy when studying induced conformation of the repressor by x-ray crystallography), ATC was incubated with MgCl2 to allow for complex formation.

[1] = 100 μg/ml, 2 days post-infection

SMILES	Cell toxicity [1]	other results
Cc1c2c(c(O)c3c(O)cccc13)C(=O)[C@]1(O)C(=O)C(C(N)=O)=C(O)[C@@H](N(C)C)[C@@H]1C2 [ATC, anhydrotetracycline]		Cell toxicity (lower concentrations than TET and DOX): did not incur any toxicity
C[C@H]1c2cccc(O)c2C(=O)C2=C(O)[C@]3(O)C(=O)C(C(N)=O)=C(O)[C@@H](N(C)C)[C@@H]3[C@@H](O)[C@@H]21 [DOX, doxycycline]	morphology associated with cell toxicity	
[Cl-].[Cl-].[Mg+2] [MgCl2]		Cell toxicity (100 mM MgCl2 (ATC-MgCl2), 2 days): toxicity-associated morphology
CN(C)[C@@H]1C(O)=C(C(N)=O)C(=O)[C@@]2(O)C(O)=C3C(=O)c4c(O)cccc4[C@@](C)(O)[C@H]3C[C@@H]12 [TET, tetracycline]	morphology associated with cell toxicity	
